The values below come from patent publication US11497206B2, “Cell cryopreservation protective composition and use thereof” (Tianjin University, priority 2016, dated 2022).

The test system of data set [1] is sheep blood cells. The data set is described as follows: Recovery survival rate of blood cells after cryopreservation in liquid nitrogen, hemolysis by microplate reader. Format: cell-based. The protocol: (§1) (1) The respective cell cryopreservation protective solutions (consisting merely of PBS and the effective ingredients for cryopreservation) were prepared according to the following Table 9; (2) about 1×10^7 sheep blood cells or 20 μL rabbit blood was taken and added into about 1.5 mL to 1.8 mL of the cell cryopreservation protective solutions, and the suspensions were put into suitable freezing tubes and directly placed in liquid nitrogen for cryopreservation; (3) after cryopreservation, the cells were thawed and recovered at 37° C.; the survival rates were investigated by using a microplate reader (trademark: TECAN, model: […] 200 PRO) to determine the hemolysis in each sample, and the method for determining hemolysis is as follows: The recovered samples, a sample of PBS and a sample of water were placed in a centrifuge for centrifugation (2000 r/min, 10 min), and thereafter the supernatants were taken; the light transmittance thereof was measured using the microplate reader and the survival rates of the blood cells were calculated.

The next data set deals with rabbit blood. The data set is described as follows: Recovery survival rate of blood after cryopreservation in liquid nitrogen, hemolysis by microplate reader. Type of data set: cell-based. As to the method: as §1
Data set [2] relates to sheep blood cells. The data set is described as follows: Influence of washing operation on survival rate of blood cells after 24 h immersion. As to conditions: sheep blood cells immersed 24 h at 37° C., diluted 2 folds with PBS, washed by centrifugation (FIG. 11).
The mark [3] stands for this setting: effective ingredient 1 mass % in PBS.
The mark [4] stands for this setting: effective ingredient 2 mass % in PBS.
Setting [5] is: effective ingredient 3 mass % in PBS.
[6] abbreviates: effective ingredient 4 mass % in PBS.
Setting [7] is: effective ingredient 5 mass % in PBS.
The mark [8] stands for this setting: effective ingredient 6 mass % in PBS.
The mark [9] stands for this setting: effective ingredient 40 mass % in PBS.

Where a name gives a salt, the structure may show the parent alone.

With `C[N+](C)(C)CC(=O)[O-]` [Betaine, trimethylammonium acetate], the “Recovery cell survival rate” value with sheep blood cells [1] (setting [3]) was 25.4%; with sheep blood cells [1] (setting [4]) it was 44.6%; in the data set with sheep blood cells [1] (setting [5]) it was 49.3%; in the data set with sheep blood cells [1] (setting [6]) it was 64.8%; with sheep blood cells [1] (setting [7]) it was 70.6%; with sheep blood cells [1] (setting [8]), 88.1%. The “Recovery cell survival rate” value amounted to 55.2% in the data set with rabbit blood (setting [6]), 75.1% in the data set on rabbit blood (setting [7]), 85.4% in the data set on rabbit blood (setting [8]) and 89.0% in the data set on rabbit blood (effective ingredient 15 mass % in PBS). Moreover, in the data set on sheep blood cells [2], the “Survival rates of blood cells before and after washing” value is recorded as “not affected”.
Take `C=CC(=O)NCCC[N+](C)(C)CCC(=O)[O-]` [Carboxybetaine (meth)acrylamide, (3-acryloylaminopropyl)-(2-carboxyethyl)-dimethylammonium]: the “Recovery cell survival rate” value in the data set with sheep blood cells [1] (setting [6]) is 71.3%; in the data set on rabbit blood (setting [8]), 65.1%.
In the case of `C[S+](C)[O-]` [DMSO, Dimethyl sulfoxide], the “Recovery cell survival rate” value with sheep blood cells [1] (setting [3]) turned out to be 8.9%; in the data set on sheep blood cells [1] (setting [4]), 24.4%; in the data set on sheep blood cells [1] (setting [5]), 32.4%; in the data set with sheep blood cells [1] (setting [6]), 44.4%; in the data set on sheep blood cells [1] (setting [7]), 57.0%; in the data set with sheep blood cells [1] (setting [8]) it was 40.8%.
In the case of `OCC(O)CO` [Glycerol], the “Recovery cell survival rate” value with sheep blood cells [1] (setting [3]) worked out at 21.7%; with sheep blood cells [1] (setting [4]) it was 36.5%; in the data set with sheep blood cells [1] (setting [5]) it was 43.5%; in the data set on sheep blood cells [1] (setting [6]) it was 31.8%; with sheep blood cells [1] (setting [7]), 8.8%; in the data set on sheep blood cells [1] (setting [8]), 14.4%. Also, the “Recovery cell survival rate” value with sheep blood cells [1] (effective ingredient 10 mass % in PBS) was determined as 35.8%; in the data set on sheep blood cells [1] (setting [9]), 48.0%; with rabbit blood (setting [9]), 32.6%.
Take `C[N+](C)(C)C[C@H](O)CC(=O)[O-]` [L-carnitine, 3-carboxy-2-hydroxy-N,N,N-trimethyl-1-propanaminium inner salt (2R)]: the “Recovery cell survival rate” value was determined as 84.0% in the data set on sheep blood cells [1] (setting [8]) and 84.3% with rabbit blood (setting [8]).
In the case of `C=C(C)C(=O)OCCOP(=O)([O-])OCC[N+](C)(C)C` [Phosphorylcholine derivative, 2-(methacryloyloxy)ethyl-2-(trimethylammonio)ethyl phosphate], the “Recovery cell survival rate” value in the data set with sheep blood cells [1] (setting [6]) is reported as 80.9%; in the data set with rabbit blood (setting [8]), 73.9%.
Taken in the same sequence, the figures for `C=C(C)C(=O)OCC[N+](C)(C)CCCS(=O)(=O)[O-]` [Sulfobetaine, 3-[dimethyl-[2-(2-methylprop-2-enoyloxy)ethyl]azaniumyl]propane-1-sulfonate] were 75.6% and 73.6%.
